Tests used:
Type in all cases: in vivo, human
patients with NT2 [1] = experiment: MWT in patients with NT2 (Cohorts C1, C2)
Procedure: (§1) The purpose of the study was to evaluate the safety, tolerability, pharmacokinetics and pharmacodynamics of Compound A after multiple days of IV administration in patients with NT2. NT2 patients were evaluated in Cohort C1 and C2 (Table 30). Compound A or placebo were administered via IV infusion over 9 hours once daily for 7 days. A total of 14 patients with NT2 were treated with Compound A or placebo (5, 4, and 5 subjects in the placebo, Compound A 44 mg, and Compound A 112 mg groups, respectively). In this part, potential efficacy of Compound A was evaluated with MWT, ESS, KSS, night-time PSG (NPSG), and PGI-C as an exploratory PD assessment.
An overview of study schedule and PD testing in NT2 Patients is illustrated in FIG. 9. After screening, patients eligible for these parts had to discontinue any medication for narcolepsy including medications used for EDS or cataplexy. The medications had to be stopped for a minimum of 7 days or at least 5 half-lives of each medication, whichever was longer, before the first day of dosing (Day 1). In all cohorts of these parts, subjects underwent NPSG on Day −2 and baseline MWT sessions 4 times on Day −1 (at around 10:00, 12:00, 14:00, and 16:00). Study drug dosing via IV infusion was started at around 08:00 on Days 1-7. MWT was conducted on Day 1 at around 10:00, 12:00, 14:00, and 16:00. Subjects were allowed to take a nap on the days with no MWT assessment. At night of Day 6, the subjects underwent NPSG once again to evaluate the effect of multiple daytime dosing on night-time sleep structure. On Day 7, the subjects underwent MWT at the same hours as on Day −1. The subjects were discharged from the study site on Day 8.
The MWT is a validated objective measure that evaluates a person's ability to remain awake under soporific conditions for a defined period of time. As there is no biological measure of wakefulness, this was measured indirectly by the inability or delayed tendency to fall asleep. This tendency to fall asleep was measured via EEG-derived sleep latency in MWT.
On Day −1, Day 1 and Day 7, 40-minute session (1 session) of MWTs was performed 4 times (approximately at 10:00, 12:00, 14:00, and 16:00) per day. Sleep latency of each session was recorded. Subjects were required to stay awake during an interval between sessions.

patients with NT2 [2] = experiment: Epworth Sleepiness Scale (ESS) in patients with NT2; set-up: scale not given here; details: Day 7
Procedure: as §1

patients with NT2 [3] = experiment: KSS in patients with NT2; details: 9 hours postdose
Procedure: as §1

[4] = system: subjects with obstructive sleep apnea; experiment: MWT in subjects with OSA experiencing EDS despite CPAP; details: single 9-hour IV infusion
Procedure: The treatment periods began on Day 1 of Treatment Period 1 (Study Day 1) with Treatment Periods 2 and 3 commencing on Study Days 3 and 5, respectively. In the morning of Day 1 of Treatment Period 1, eligible subjects were randomized to 1 of the 6 sequence groups as listed in Table 36. After randomization, the subject was dosed in 3 treatment periods according to the order defined by the sequence group to which he/she was randomized. On Day 1 of each treatment period, Compound A or placebo was administered as a single 9-hour IV infusion commencing at approximately 08:00. The infusion was terminated at approximately 17:00. On Day 1 of each treatment period, four 40-minute maintenance of wakefulness test (MWT) sessions was performed at 2, 4, 6, and 8 hours after the start of the infusion. Subjects were required to stay awake in between the MWT sessions.
On Day 1 of Treatment Period 1, all eligible subjects were randomized and received the first dose of study drug. Compound A or placebo was administered as a single 9-hour IV infusion commencing at approximately 08:00. […] Blood samples for determination of Compound A plasma concentrations were collected predose and at specified time points postdose, Safety assessments were recorded. During the study, AEs were recorded, clinical laboratory tests, vital signs, and safety ECGs were obtained. […]

[5] = system: subjects with obstructive sleep apnea; experiment: KSS in subjects with OSA experiencing EDS despite CPAP
Procedure: On Day 1 of Treatment Period 1, all eligible subjects were randomized and received the first dose of study drug. Compound A or placebo was administered as a single 9-hour IV infusion commencing at approximately 08:00. On each dosing day (Study Days 1, 3, and 5), 40-minute MWT sessions were performed at 2, 4, 6, and 8 hours after the start of the infusion. There was a minimum 24-hour washout interval between the end of the infusion and the commencement of treatment in subsequent treatment periods to allow for complete elimination of the preceding treatment effect. The KSS and PVT were collected per the Schedule of Study Procedures. Blood samples for determination of Compound A plasma concentrations were collected predose and at specified time points postdose, Safety assessments were recorded. During the study, AEs were recorded, clinical laboratory tests, vital signs, and safety ECGs were obtained. Study Days 2, 4, and 6 were washout days. Subjects were discharged from the unit following completion of study exit procedures in the afternoon of Study Day 6 (Day 2 of Treatment Period 3). Subjects were contacted by telephone approximately 7 days (±2 days) following unit discharge for a safety check.

SMILES: COC(=O)N1CCC[C@H](NS(C)(=O)=O)[C@@H]1CO[C@H]1CC[C@@H](c2ccccc2)CC1 [Compound A, methyl (2R,3S)-3-((methylsulfonyl)amino)-2-(((cis-4-phenylcyclohexyl)oxy)methyl)piperidine-1-carboxylate]
- Mean change from baseline in average sleep latency in MWT (patients with NT2 [1]; Compound A 44 mg, Day 1): 23.88 min
- Mean sleep latency in MWT (patients with NT2 [1]; Compound A 44 mg, Day 1): 33.03 min
- Mean change from baseline in average sleep latency in MWT (patients with NT2 [1]; Compound A 44 mg, Day 7): 25.79 min
- Mean sleep latency in MWT (patients with NT2 [1]; Compound A 44 mg, Day 7): 34.47 min
- Maximum sleep latency achieved in MWT (patients with NT2 [1]; Compound A 44 mg, at 2 and 8 hours on Day 1 and at 4 and 8 hours on Day 7): 40 min
- Mean change from baseline in average sleep latency in MWT (patients with NT2 [1]; Compound A 112 mg, Day 1): 31.15 min
- Mean sleep latency in MWT (patients with NT2 [1]; Compound A 112 mg, Day 1): 38.48 min
- Mean change from baseline in average sleep latency in MWT (patients with NT2 [1]; Compound A 112 mg, Day 7): 28.28 min
- Mean sleep latency in MWT (patients with NT2 [1]; Compound A 112 mg, Day 7): 35.60 min
- Maximum sleep latency achieved in MWT (patients with NT2 [1]; Compound A 112 mg, at 2, 4, and 8 hours both on Day 1 and Day 7): 40 min
- ESS Change from Baseline Mean (patients with NT2 [2]; Compound A 44 mg): −3.8
- ESS Change from Baseline Median (patients with NT2 [2]; Compound A 44 mg): −3.5
- ESS Observed Value Mean (patients with NT2 [2]; Compound A 44 mg): 13.3
- ESS Observed Value Median (patients with NT2 [2]; Compound A 44 mg): 14.0
- Mean ESS score (patients with NT2 [2]; Compound A 44 mg): 13.3
- Mean change from baseline in ESS (patients with NT2 [2]; Compound A 44 mg): −3.8
- ESS Change from Baseline Mean (patients with NT2 [2]; Compound A 112 mg): −12.2
- ESS Change from Baseline Median (patients with NT2 [2]; Compound A 112 mg): −13.0
- ESS Observed Value Mean (patients with NT2 [2]; Compound A 112 mg): 6.0
- ESS Observed Value Median (patients with NT2 [2]; Compound A 112 mg): 4.0
- Mean ESS score (patients with NT2 [2]; Compound A 112 mg): 6.0
- Mean change from baseline in ESS (patients with NT2 [2]; Compound A 112 mg): −12.2
- Mean change from baseline in KSS (patients with NT2 [3]; Compound A 44 mg, Day 1): −0.5
- Mean change from baseline in KSS (patients with NT2 [3]; Compound A 44 mg, Day 7): 0.0
- Mean change from baseline in KSS (patients with NT2 [3]; Compound A 112 mg, Day 1): −1.0
- Mean change from baseline in KSS (patients with NT2 [3]; Compound A 112 mg, Day 7): −0.8
- Mean placebo-adjusted increase in sleep latency in the MWT ([4]; Compound A 44 mg): 22 min
- Mean placebo-adjusted increase in sleep latency in the MWT ([4]; Compound A 112 mg): 28 min
- Mean placebo-adjusted decrease in KSS ([5]; Compound A 44 mg): −1.6
- Mean placebo-adjusted decrease in KSS ([5]; Compound A 112 mg): −2.4

From patent publication US20220331303A1, “USE OF AN OREXIN 2 RECEPTOR AGONIST FOR THE TREATMENT OF EXCESSIVE SLEEPINESS” (Takeda Pharmaceutical Company Limited, priority 2019, published 2022)
